# Measured values taken from patent US10138469B2, “Synthetic peptide and use thereof” (Toagosei Co., Ltd., priority 2014, dated 2018).
# What was measured:
# CCD1079SK cells [1] = test: Production of SIRIUS cells: cluster formation and cell morphology of fibroblasts cultured with peptide (phase-contrast microscopy); format: cell-based, human; settings: for cell morphology in the culture: days 1 to 6
# From the text: SIRIUS cells were produced using the sample 1 obtained in Working Example 1. CCD1079SK cells (ATCC (registered trademark) CRL-2097), which are a fibroblast cell culture line derived from human skin tissue, were used as the sample cells. The details of the tests are as follows.
# The CCD1079SK cells, which had been stored frozen, were inoculated to six culture dishes with a diameter of 60 mm (60 mm dishes) to provide a cell density of 3×10^5 cells/well. Specifically, the thawed CCD1079SK cells were first suspended in ordinary Dulbecco's modified Eagle's medium (DMEM medium) to produce a cell suspension having a cell density of 1.5×10^5 cells/mL and 2 mL of this cell suspension was introduced into the 60 mm dish. This DMEM medium contained 10% FBS, 100 units/mL of penicillin, and 100 μg/mL of streptomycin in ordinary DMEM (Wako Pure Chemical Industries, Ltd., Cat. No. 043-30085).
# The CCD1079SK cells inoculated into the 60 mm dish were precultured for several hours (approximately 6 hours) in an incubator under conditions of 5% CO2 and 37° C.
# After the preculture for several hours, the CCD1079SK cells were subjected to a main culture at one of the culture conditions indicated for examples 1 to 6 in Table 1. The specific culture conditions are given in the following. […]
# The culture conditions according to example 5 are as follows: the stock solution of sample 1 is added, in an amount that provides a peptide concentration in the medium of 20 μM, to the DMEM medium (in the 60 mm dish) on which the CCD1079SK cells are being cultured, and culture is carried out under a temperature condition of 13° C. […]
# Other than the culture temperature and the presence/absence of peptide addition, the same culture conditions were used in all of examples 1 to 6. Thus, in all of examples 1 to 6, culture was carried out in a 5% CO2 atmosphere using a DMEM medium with the same composition (same as that used in the preculture). In addition, in all of examples 1 to 6, culture exchange and peptide addition (addition of PBS (−) in the peptide-free groups) were carried out every two days after the start of the main culture.
# Observation of the cell morphology using a phase-contrast microscope was carried out in each example on the 1st, 2nd, 3rd, 4th, 5th, 6th, 7th, 9th, 13th, 21st, 27th, and 34th days after the start of the main culture (cell culture in the presence of peptide). Among the images in FIG. 2, the micrographs given for example 3 are micrographs (images) showing cell aggregates (clusters) that were rarely identified when tests were independently repeated a plurality of times using the same conditions as in example 3.
# CCD1079SK cells [2] = test: Evaluation of the state of undifferentiation of SIRIUS cells by cytoimmunostaining of undifferentiated marker genes; format: cell-based, human; settings: sample 1 20 μM, 30° C., 3 days; fluorescent immunostaining
# Method: The state of undifferentiation of the SIRIUS cells (cells forming clusters) produced using the sample 1 obtained in example 1 was evaluated by cytoimmunostaining (fluorescent immunostaining) of the state of expression of undifferentiated marker genes (endogenous Oct3/4, Nanog, Sox2, TRA1-81, SSEA-3, and ALP), i.e., the state of expression of protein that is a gene product of these genes (this protein is also referred to as “undifferentiated marker protein” below). The details of the evaluation test are as follows.
# The SIRIUS cells according to this working example were produced by culture under the same conditions as the culture conditions given in example 1 of Working Example 2 with the following exceptions: a cell culture chamber having 1 well per slide (culture area of 19 mm×44 mm) (also referred to as a slide chamber) was used as the culture chamber, 1.5×10^5 cells/well was used for the number of cells per well; and 1 mL was used for the amount of medium per well. The status of differentiation of the SIRIUS cells was evaluated by cytoimmunostaining as follows on the 3rd day after the start of the main culture (culture in the presence of peptide).
# Fixing, a permeabilization treatment, and a blocking treatment were first carried out on the cells in each test group. Specifically, the medium was removed from the culture chamber (slide chamber) in each test group once the culture for 3 days in the presence of peptide had been completed and the cells in each slide chamber were washed with cold PBS. PBS containing 4 volume % paraformaldehyde (4% paraformaldehyde solution) was then added to the slide chamber and the cells were fixed by standing for 15 minutes on ice. After the prescribed time had elapsed, the 4% paraformaldehyde solution was removed and the cells in the slide chamber were washed with cold PBS.
# PBS containing 0.25 volume % Triton (registered trademark) X-100 (0.25% Triton (registered trademark) X-100 solution) was then added to each slide chamber and a permeabilization treatment was carried out on the cell membrane by standing for 15 minutes on ice. After the prescribed time had elapsed, the 0.25% Triton (registered trademark) X-100 solution was removed and the cells in the slide chamber were washed with cold PBS.
# PBS containing 1% BSA (1% BSA-containing PBS) was added to each slide chamber and a blocking treatment was carried out for 1 hour at room temperature. After the prescribed time had elapsed, the 1% BSA-containing PBS was removed and the cells in the slide chamber were washed with cold PBS.
# The primary antibodies (primary antibody dilution)—obtained by the dilution at the prescribed ratio (dilution ratio shown in Table 2) with 0.1% BSA/PBS of primary antibody that recognized the particular undifferentiated marker protein—were respectively added to the slide chambers and standing was carried out overnight (approximately 16 to 18 hours) at 4° C. After the prescribed time had elapsed, the primary antibody dilution was removed and washing with cold PBS was performed.
# Table 2 gives the undifferentiation markers used to evaluate the status of expression in this working example, the details for the primary antibody (product name, product number, immunized animal, antibody class) used to recognize the particular undifferentiated marker protein, and the dilution ratio for the primary antibody. Of the primary antibodies given in Table 2, the anti-Oct3/4 antibody was from Santa Cruz Biotechnology, Inc. and the anti-Nanog antibody, anti-Sox2 antibody, anti-TRA1-81 antibody, anti-SSEA-3 antibody, and anti-ALP antibody were from Abcam plc.
# Secondary antibody (secondary antibody dilution)—obtained by the 1000× dilution with 0.1% BSA/PBS of a secondary antibody that detected the particular primary antibody—was added to the slide chamber and standing was carried out in the dark for 2 hours at room temperature. After the prescribed time had elapsed, the secondary antibody dilution was removed and washing with cold PBS was performed. […]
# [3] = example 2: sample 1 20 μM, 37° C.
sequence,measurement,setting,value
CKSKSRRSC [sample 1],time to formation of aggregates (clusters) of aggregated cells after the start of the main culture,"CCD1079SK cells [1]; example 1: sample 1 20 μM, 30° C., 60 mm dish",≤ 3 days
same,probability that at least 1 cluster was formed in the 60 mm dish within the 3rd day after the start of culture,"CCD1079SK cells [1]; example 1 conditions: 20 μM, 30° C., 26 times in 27 tests",at least 95%
same,"number (frequency) of clusters formed per one 60 mm dish, average","CCD1079SK cells [1]; example 1 conditions: 20 μM, 30° C., within the 3rd day",3
same,formation of cell aggregates (clusters) within 3 days after the start of the main culture,CCD1079SK cells [1]; [3],"did not form, or their formation frequency was very low"
same,persistence of the rarely observed clusters,CCD1079SK cells [1]; [3],disappeared by the 34th day
same,cell morphology in the culture,"CCD1079SK cells [1]; example 5: sample 1 20 μM, 13° C.",very close to a dead cell morphology
same,cell morphology in the culture,"CCD1079SK cells [1]; example 6: sample 1 20 μM, 22° C.",very close to a dead cell morphology
same,expression of undifferentiated marker gene ALP by cells constituting the clusters,CCD1079SK cells [2],strongly expressed
same,expression of undifferentiated marker gene Nanog by cells constituting the clusters,CCD1079SK cells [2],strongly expressed
same,expression of undifferentiated marker gene Oct3/4 by cells constituting the clusters,CCD1079SK cells [2],strongly expressed
same,expression of undifferentiated marker gene SSEA-3 by cells constituting the clusters,CCD1079SK cells [2],strongly expressed
same,expression of undifferentiated marker gene Sox2 by cells constituting the clusters,CCD1079SK cells [2],strongly expressed
same,expression of undifferentiated marker gene TRA1-81 by cells constituting the clusters,CCD1079SK cells [2],strongly expressed
